The results in this text go back to ChEMBL document CHEMBL1201862, “PubChem BioAssay data set” (2004).

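Values below derive from 48-hour exposures of cells grown in 96-well plates, with endpoints linearly interpolated between the two concentrations bracketing the appropriate inhibition level. GI50 marks 50% less growth.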 Calls of active or inactive are those of the source. Cut-off read from the data, not from the text of the source: active = GI50 up to about 1.1 µM and inactive = higher.

Holding throughout (test): NCI tumour cell line growth inhibition, 48 h
The subject of test [1] is ACHN.
Test [2] deals with OVCAR-8.
The test system of test [3] is SF-295.
Test [4] deals with K562.
Test [5] has as its system SK-MEL-2.
Test [6] relates to RXF 393.
For test [7], the system named is PC-3.
Test [8] relates to SN12C.
Test [9] deals with MOLT-4.
For test [10], the system named is RPMI-8226.
The subject of test [11] is HCT-15.
The test system of test [12] is SF-539.
For test [13], the system named is SK-MEL-28.
Test [14] relates to HCT-116.
In test [15] the test system is OVCAR-3.
In test [16] the test system is HOP-62.
Test [17] has as its system M14.
Test [18] concerns NCI-H460.
For test [19], the system named is SNB-19.
Test [20] has as its system OVCAR-4.

As to `Cc1ccc(NC(=S)C#N)cc1Cl`, the GI50 in [1] is 37.7 µM (inactive); in test [2] it was 35.7 µM (inactive); in [3] it was 26.4 µM (inactive); in test [4] it was 39.3 µM (inactive); in [5], 35.5 µM (inactive); in [6], 29.4 µM (inactive). Besides, the GI50 in [7] is 43.4 µM (inactive); in [8] it was 58.5 µM (inactive); in [9], 32.8 µM (inactive); in [10] it was 6.79 µM (inactive); in [11], 23.3 µM; in test [12], 24.2 µM (inactive). The GI50 was 41.2 µM (inactive) in [13]; 36.6 µM (inactive) in test [14]; 21.5 µM (inactive) in test [15]; 49.1 µM (inactive) in test [16]; 36.9 µM (inactive) in [17].
Regarding `CCCCCCOc1ccc(NC2=C(Cl)C(=O)c3cccnc3C2=O)cc1`, the GI50 in test [1] was 2.1 µM (inactive); in test [2] it was 2.03 µM (inactive); in test [18], 1.79 µM (inactive); in test [3] it was 3.65 µM (inactive); in test [4], 1.39 µM (inactive); in [19], 2.7 µM (inactive). Further, the GI50 in [5] was 1.59 µM (inactive); in test [6], 1.37 µM (inactive); in test [7], 2.41 µM (inactive); in test [8] it was 1.68 µM (inactive); in test [9], 1.87 µM (inactive); in test [10], 0.684 µM (active). Moreover, the GI50 in test [11] is 1.79 µM; in [12], 2.09 µM (inactive); in test [13], 2.13 µM (inactive); in test [14], 0.895 µM (active); in [15], 1.35 µM (inactive); in test [16] it was 2.17 µM (inactive). In test [17], the GI50 is 1.3 µM (inactive).
As for `NC(=O)CC[C@H]1C(=O)N=C(N)N1C(=O)OCc1ccccc1`, the GI50 in test [1], in test [2], in test [18], in test [3], in test [4] and in test [19] was > 100 µM (inactive) throughout. For the same molecule, the GI50 in test [5], in test [6], in test [20], in test [7], in [8] and in test [9] was > 100 µM (inactive) in each case. Further, the GI50 in [10] was > 100 µM (inactive); in test [11], more than 100 µM; in test [13] it was > 100 µM (inactive); in test [14], > 100 µM (inactive); in test [15], > 100 µM (inactive); in test [16], > 100 µM (inactive).
Take `COc1ccc(-c2nc(-c3cnccn3)n(C3OC(CO)C(O)C(O)C3O)n2)cc1` (centres undefined): the GI50 in test [2], in [18], in test [3], in test [4], in [19] and in [6] was > 100 µM (inactive) each time. In addition, the GI50 in test [20] is > 100 µM (inactive); in test [7] it was > 100 µM (inactive); in test [8], > 100 µM (inactive); in [9], > 100 µM (inactive); in test [10] it was > 100 µM (inactive); in test [11], more than 100 µM. The GI50 in test [12], in test [13], in [14], in test [15], in test [16] and in test [17] was > 100 µM (inactive) in each case.
As for `COc1cc(CSc2ccc(O)cc2)cc(OC)c1OC`, the GI50 was 31.3 µM (inactive) in [1]; 33.8 µM (inactive) in test [2]; 37.6 µM (inactive) in [18]; 24.9 µM (inactive) in [3]; 38 µM (inactive) in test [4]; 34.6 µM (inactive) in [19]. For the same molecule, the GI50 in test [5] was 21 µM (inactive); in test [6], > 100 µM (inactive); in [7] it was 27.4 µM (inactive); in [8] it was 52.5 µM (inactive); in test [9] it was 25.5 µM (inactive); in test [10], 21.3 µM (inactive). Besides, the GI50 was 25.5 µM in test [11]; 53.3 µM (inactive) in [12]; 76.7 µM (inactive) in [13]; 53 µM (inactive) in [14]; 41.6 µM (inactive) in test [15]; 49.7 µM (inactive) in test [16]. Further, the GI50 in test [17] is 36.4 µM (inactive).
As to `c1ccc(CCN2CCOCC2)nc1`, the GI50 in test [1], in [2], in test [18], in test [3], in test [4] and in test [19] was > 100 µM (inactive) each time. In addition, the GI50 in [5], in test [6], in test [20], in test [7], in test [8] and in test [10] was > 100 µM (inactive) in each case. Besides, the GI50 in [11] is more than 100 µM; in [13], > 100 µM (inactive); in test [14], > 100 µM (inactive); in test [15] it was > 100 µM (inactive); in test [16] it was > 100 µM (inactive); in test [17], > 100 µM (inactive).
Take `O=[N+]([O-])C1CC/C(=N/O)c2nonc21` (centres undefined): the GI50 in test [1], in test [2], in [18], in test [3], in test [4] and in [19] was > 10 µM (inactive) in each case. Besides, the GI50 in [6], in test [20], in test [7], in test [8], in test [9] and in test [10] was > 10 µM (inactive) throughout. For the same molecule, the GI50 was more than 10 µM in test [11]; > 10 µM (inactive) in test [12]; > 10 µM (inactive) in test [13]; > 10 µM (inactive) in [14]; > 10 µM (inactive) in test [15]; > 10 µM (inactive) in [16]. Further, the GI50 in test [17] was > 10 µM (inactive).
Regarding `COc1ccc2[nH]c(Cl)c(/C=C3/C(=O)N(c4ccccc4)c4ccccc43)c2c1`, the GI50 in test [1] was 7.57 µM (inactive); in test [2], 6.44 µM (inactive); in test [18], 3.55 µM (inactive); in [3], 2.48 µM (inactive); in test [4], 3.18 µM (inactive); in [19] it was 9.46 µM (inactive). The GI50 in [5] was 2.92 µM (inactive); in test [6], 15.9 µM (inactive); in [7], 3.7 µM (inactive); in test [8], 4.78 µM (inactive); in test [9], 3.82 µM (inactive); in [10], 2.82 µM (inactive). Besides, the GI50 in test [11] was 2.58 µM; in test [12], 3.03 µM (inactive); in test [13], 8.49 µM (inactive); in [14] it was 5.07 µM (inactive); in test [15] it was 3.37 µM (inactive); in test [16], 6.81 µM (inactive). Besides, in test [17], the GI50 is 3.66 µM (inactive).
Take `COC(=O)C1=CCC[C@H]2[C@@]1(COC(C)=O)CC[C@@H](C)[C@]2(C)CC(=O)c1ccoc1`: the GI50 is 16.9 µM (inactive) in test [1]; 17.9 µM (inactive) in test [2]; 14.3 µM (inactive) in [18]; 19.3 µM (inactive) in test [3]; 27.9 µM (inactive) in test [19]; 15.7 µM (inactive) in [5]. Also, the GI50 was 19.6 µM (inactive) in [6]; 14.5 µM (inactive) in [20]; 14.7 µM (inactive) in [7]; 17.8 µM (inactive) in test [8]; 10.5 µM (inactive) in test [9]; 11.4 µM (inactive) in [10]. Besides, the GI50 in test [11] is 13.9 µM; in test [12], 10.9 µM (inactive); in test [14], 9.91 µM (inactive); in test [15] it was 15.7 µM (inactive); in [17] it was 23.5 µM (inactive).
`CC(=O)c1ccc(N2CCN(C3=CC(=O)c4c(O)ccc(O)c4C3=O)CC2)cc1`: the GI50 was 13.1 µM (inactive) in [2]; 48.5 µM (inactive) in test [18]; 35 µM (inactive) in test [3]; 37.5 µM (inactive) in [4]; 62.4 µM (inactive) in [19]; 47.8 µM (inactive) in test [6]. Further, the GI50 in test [20] was > 100 µM (inactive); in test [7], 66.1 µM (inactive); in test [9], 5.38 µM (inactive); in test [10] it was > 100 µM (inactive); in test [11] it was 5.41 µM; in test [12], > 100 µM (inactive). The GI50 in test [13] is > 100 µM (inactive); in test [14], 7.57 µM (inactive); in test [15], 39.9 µM (inactive); in test [16] it was 29.9 µM (inactive); in test [17] it was 40.7 µM (inactive).
Regarding `CN1C(=O)C(CC=O)(C(C)(C)C)c2ccccc21` (centres undefined), the GI50 in test [1] was 47.2 µM (inactive); in test [18], > 100 µM (inactive); in test [3], > 100 µM (inactive); in test [4], 91.6 µM (inactive); in [19], > 100 µM (inactive); in test [5], > 100 µM (inactive). Moreover, the GI50 in test [6] was > 100 µM (inactive); in test [20] it was > 100 µM (inactive); in test [7], > 100 µM (inactive); in test [8] it was > 100 µM (inactive); in test [9], 56.8 µM (inactive); in test [10], 37.9 µM (inactive). Moreover, the GI50 in [11] was 90.6 µM; in test [13] it was > 100 µM (inactive); in [14], 76.4 µM (inactive); in [15], > 100 µM (inactive); in test [16] it was > 100 µM (inactive); in [17] it was > 100 µM (inactive).
